# Measured values: patent publication US8691804B2 (Evotec AG, priority 2008, dated 2014)
# Biological target: T1, human H3 receptors (Homo sapiens, UniProt Q9Y5N1)
# T1 construct: host or cells: CHO-K1
# Experiment: cAMP quantification assay for human H3 receptor testing
# Format: cell-based
# Settings: CHO-K1 cells expressing human H3 receptors; inhibition of agonist-induced decrease of cAMP; 100 nM histamine, 10 μM forskolin; read-out: Potency range (IC50 values)
# Description: CHO—K1 cell line expressing human H3 receptors were purchased from Euroscreen (Gosselies, Belgium, Cat. no.: ES-392-C)
# Human H3 receptor-expressing cell-lines were grown in Ham's F12 [Sigma, Cat. no. N6658], supplemented with 10% FBS [Sigma, Cat. no. F9665], 400 μg/ml G418 [Sigma, Cat. no. N1876] and 250 μg/ml Zeocin [Invitrogen, Cat. no. 46-0509]) according to the protocol provided by Euroscreen.
# The assay measures the ability of test compounds to inhibit Histamine receptor agonist-induced decrease of intracellular free cAMP (receptor is Gi coupled).
# Specifically, a cAMP quantification assay system from DiscoveRx (cAMP XS+; Cat. no. 90-0075) was used.
# For the cAMP assay, confluent cells were detached from the culture vessels with 1× trypsin-EDTA solution (Sigma), and seeded into 384-well Costar plates (white, clear bottom, Cat. no. 3707) at a density of 10,000 cells per well. Cells were seeded in a volume of 50 μl in medium without antibiotics and incubated overnight in a humidified atmosphere with 5% CO2 at 37° C. The cAMP assay was performed according to the protocol provided by DiscoveRx.
# The cell culture medium was removed and the cells washed once with PBS (50 μl per well). The plates were emptied by inversion and 7.5 μl/well of compound in PBS (containing 1 mM IBMX and 0.03% BSA) were added and incubated for 30 min at 37° C.
# Subsequent 7.5 μl/well specific agonist solution was added and the plates for another 30 min incubated at 37° C.
# hH3:100 nM histamine, 10 μM forskolin in PBS (containing 1 mM IBMX and 0.03% BSA)
# After the incubation with the agonist, 5 μl/well cAMP XS antibody solution was added followed by 20 μl/well Gal/EII/Lysis (1:5:19)+ED (1:1). The plates were incubated for one hour at room temperature and afterwards 20 μl/well EA reagent was added. The luminescence was developed for approximately three hours at room temperature and the plates were read out using a ‘BMG Novostar’ plate reader.
# Test compounds were assayed at 8 concentrations in triplicate. Serial 10-fold dilutions in 100% DMSO were made at a 100-times higher concentration than the final concentration and then diluted with a 2 step protocol in assay buffer to reach the required assay concentrations and 1% DMSO. […]
# T1 sequence (Q9Y5N1 whole entry): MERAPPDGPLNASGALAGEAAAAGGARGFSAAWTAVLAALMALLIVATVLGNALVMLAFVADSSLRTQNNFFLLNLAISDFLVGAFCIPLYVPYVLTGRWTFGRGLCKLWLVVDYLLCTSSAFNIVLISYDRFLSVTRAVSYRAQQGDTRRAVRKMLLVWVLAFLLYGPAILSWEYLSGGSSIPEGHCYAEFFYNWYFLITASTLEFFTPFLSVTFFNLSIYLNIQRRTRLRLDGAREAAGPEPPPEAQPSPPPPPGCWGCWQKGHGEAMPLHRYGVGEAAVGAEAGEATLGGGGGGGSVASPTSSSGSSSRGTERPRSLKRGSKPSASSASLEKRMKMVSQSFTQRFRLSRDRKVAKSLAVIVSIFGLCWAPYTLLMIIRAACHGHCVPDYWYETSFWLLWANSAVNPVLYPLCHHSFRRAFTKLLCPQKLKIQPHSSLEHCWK
row,Compound,IC50 [nM]
1,"O=C(N1CCCN(C2CCC2)CC1)N1CC(Oc2ccc(N3CCCC3=O)cc2)C1 [Example 18, 1-[4-({1-[(4-cyclobutyl-1,4-diazepan-1-yl)carbonyl]azetidin-3-yl}oxy)phenyl]pyrrolidin-2-one]",< 100
2,"O=C(N1CCCN(C2CCC2)CC1)N1CC(Oc2ccccc2C(F)(F)F)C1 [Example 29, 1-cyclobutyl-4-({3-[2-(trifluoromethyl)phenoxy]azetidin-1-yl}carbonyl)-1,4-diazepane]",< 100
3,"O=C(N1CCCN(C2CCC2)CC1)N1CC(Oc2ccc(Cn3cccn3)cc2)C1 [Example 16, 1-cyclobutyl-4-({3-[4-(1H-pyrazol-1-ylmethyl)phenoxy]azetidin-1-yl}carbonyl)-1,4-diazepane]",< 100
4,"N#Cc1ccc(O[C@H]2C[C@H](C(=O)N3CCCN(C4CCC4)CC3)C2)cc1 [Example 106, 4-({trans-3-[(4-cyclobutyl-1,4-diazepan-1-yl)carbonyl]cyclobutyl}oxy)benzonitrile]",< 100
5,"CN(C(=O)C1CN(C(=O)N2CCCN(C3CCC3)CC2)C1)c1ccc(Cl)cc1 [Example 146, N-(4-chlorophenyl)-1-[(4-cyclobutyl-1,4-diazepan-1-yl)carbonyl]-N-methylazetidine-3-carboxamide]",< 100
6,"CNC(=O)c1ccc(OC2CN(C(=O)N3CCCN(C(C)C)CC3)C2)cn1 [Example 114, 5-({1-[(4-(1-methylethyl)-1,4-diazepan-1-yl)carbonyl]azetidin-3-yl}oxy)-N-methylpyridine-2-carboxamide]",< 100
7,"CN(C)C(=O)c1ccc(OC2CN(C(=O)N3CCCN(C4CCC4)CC3)C2)cn1 [Example 6, 5-({1-[(4-cyclobutyl-1,4-diazepan-1-yl)carbonyl]azetidin-3-yl}oxy)-N,N-dimethylpyridine-2-carboxamide]",< 100
8,"O=C(N1CCN(C2CCC2)CC1)N1CC(Oc2ccccc2)C1 [Example 38, 1-cyclobutyl-4-[(3-phenoxyazetidin-1-yl)carbonyl]piperazine]",< 100
9,"CN(C(=O)c1ccc(Cl)cc1)C1CN(C(=O)N2CCCN(C3CCC3)CC2)C1 [Example 142, 4-chloro-N-{1-[(4-cyclobutyl-1,4-diazepan-1-yl)carbonyl]azetidin-3-yl}-N-methylbenzamide]",< 100
10,"CNC(=O)c1ccc(OC2CN(C(=O)N3CCCN(C)CC3)C2)cn1 [Example 113, 5-({1-[(4-methyl-1,4-diazepan-1-yl)carbonyl]azetidin-3-yl}oxy)-N-methylpyridine-2-carboxamide]",500 to 5000
11,"O=C([C@H]1C[C@@H](Oc2ccc(C(F)(F)F)cn2)C1)N1CCCN(C2CCC2)CC1 [Example 104, 1-cyclobutyl-4-[(cis-3-{[5-(trifluoromethyl)pyridin-2-yl]oxy}cyclobutyl)carbonyl]-1,4-diazepane]",< 100
12,"Cn1cc(-c2ccc(OC3CN(C(=O)N4CCCN(C5CCC5)CC4)C3)cc2)cn1 [Example 149, 1-cyclobutyl-4-({3-[4-(1-methyl-1H-pyrazol-4-yl)phenoxy]azetidin-1-yl}carbonyl)-1,4-diazepane]",< 100
13,"CNC(=O)c1ccc(OC2CN(C(=O)N3CCN(C4CCC4)CC3)C2)cn1 [Example 37, 5-({1-[(4-cyclobutylpiperazin-1-yl)carbonyl]azetidin-3-yl}oxy)-N-methylpyridine-2-carboxamide]",< 100

# The next lines start with the values.
row,IC50 [nM],Compound
1,< 100,"CNC(=O)c1ccc(OCC2CN(C(=O)N3CCCN(C4CCC4)CC3)C2)cn1 [Example 138, 5-({1-[(4-cyclobutyl-1,4-diazepan-1-yl)carbonyl]azetidin-3-yl}methoxy)-N-methylpyridine-2-carboxamide]"
2,< 100,"COc1nccc(OC2CN(C(=O)N3CCCN(C4CCC4)CC3)C2)n1 [Example 52, 1-cyclobutyl-4-({3-[(2-methoxypyrimidin-4-yl)oxy]azetidin-1-yl}carbonyl)-1,4-diazepane]"
3,< 100,"O=C(N1CCCN(C2CCC2)CC1)N1CC(Oc2ccc(I)cc2)C1 [Example 44, 1-cyclobutyl-4-{[3-(4-iodophenoxy)azetidin-1-yl]carbonyl}-1,4-diazepane]"
4,< 100,"COc1ccc(OC2CN(C(=O)N3CCCN(C4CCC4)CC3)C2)nc1 [Example 161, 1-cyclobutyl-4-({3-[(5-methoxypyridin-2-yl)oxy]azetidin-1-yl}carbonyl)-1,4-diazepane]"
5,< 100,"COCC1CN(C(=O)N2CCCN(C3CCC3)CC2)C1 [Example 148, 1-cyclobutyl-4-{[3-(methoxymethyl)azetidin-1-yl]carbonyl}-1,4-diazepane]"
6,< 100,"CNC(=O)c1cc(OC2CN(C(=O)N3CCCN(C4CCC4)CC3)C2)ccn1 [Example 147, 4-({1-[(4-cyclobutyl-1,4-diazepan-1-yl)carbonyl]azetidin-3-yl}oxy)-N-methylpyridine-2-carboxamide]"
7,< 100,"O=C(C1CN(C(=O)N2CCCN(C3CCC3)CC2)C1)N1CCOCC1 [Example 125, 1-cyclobutyl-4-{[3-(morpholin-4-ylcarbonyl)azetidin-1-yl]carbonyl}-1,4-diazepane]"
8,< 100,"CN(C)c1cc(OC2CN(C(=O)N3CCCN(C4CCC4)CC3)C2)ccn1 [Example 58, 4-({1-[(4-cyclobutyl-1,4-diazepan-1-yl)carbonyl]azetidin-3-yl}oxy)-N,N-dimethylpyridin-2-amine]"
9,< 100,"O=C(N1CCCN(C2CCC2)CC1)N1CC(Oc2ccncc2)C1 [Example 81, 1-cyclobutyl-4-{[3-(pyridin-4-yloxy)azetidin-1-yl]carbonyl}-1,4-diazepane]"
10,< 100,"CC(C)(CO)c1ccc(OC2CN(C(=O)N3CCCN(C4CCC4)CC3)C2)cn1 [Example 156, 2-[5-({1-[(4-cyclobutyl-1,4-diazepan-1-yl)carbonyl]azetidin-3-yl}oxy)pyridin-2-yl]-2-methylpropan-1-ol]"
11,< 100,"O=C(N1CCCN(C2CCC2)CC1)N1CC(Oc2cncc(Cl)c2)C1 [Example 80, 1-({3-[(5-chloropyridin-3-yl)oxy]azetidin-1-yl}carbonyl)-4-cyclobutyl-1,4-diazepane]"
12,< 100,"Cc1ccc(C(=O)N(C)C2CN(C(=O)N3CCCN(C4CCC4)CC3)C2)cn1 [Example 143, N-{1-[(4-cyclobutyl-1,4-diazepan-1-yl)carbonyl]azetidin-3-yl}-N,6-dimethylpyridine-3-carboxamide]"
13,< 100,"O=C(N1CCCN(C2CCC2)CC1)N1CC(OCc2ccc(F)cc2)C1 [Example 95, 1-cyclobutyl-4-({3-[(4-fluorobenzyl)oxy]azetidin-1-yl}carbonyl)-1,4-diazepane]"
14,< 100,"O=C(N1CCCN(C2CCC2)CC1)N1CC(CO)C1 [Example 134, {1-[(4-cyclobutyl-1,4-diazepan-1-yl)carbonyl]azetidin-3-yl}methanol]"
15,< 100,"O=C(C1CN(C(=O)N2CCCN(C3CCC3)CC2)C1)N1CCCCCC1 [Example 128, 1-{[3-(azepan-1-ylcarbonyl)azetidin-1-yl]carbonyl}-4-cyclobutyl-1,4-diazepane]"
16,< 100,"O=C(N1CCCN(C2CCC2)CC1)N1CC(Oc2ccncc2F)C1 [Example 49, 1-cyclobutyl-4-({3-[(3-fluoropyridin-4-yl)oxy]azetidin-1-yl}carbonyl)-1,4-diazepane]"
17,< 100,"O=C(N1CCCN(C2CCC2)CC1)N1CC(Oc2ccccc2Cl)C1 [Example 33, 1-{[3-(2-chlorophenoxy)azetidin-1-yl]carbonyl}-4-cyclobutyl-1,4-diazepane]"
